Assay results as given in patent publication US12390460B2, “Treatment for obesity” (1GLOBE BIOMEDICAL CO., LTD., priority 2018, dated 2025).

Experiments:
human HepG2 liver cells [1] = test: Intracellular fat content in HepG2 cells, AdipoRed/Hoechst 33258 double staining, 48 hours; type: cell-based; conditions: HepG2, 0.8 mM palmitoleic acid, 0.1 μM compound, FIG. 10C; for palmitoleic acid-induced increase of intracellular triglyceride content: vs DMSO
Protocol: And the effects of Compound 001, Compound 004, Compound 006, Compound 013, Compound 132, Compound 133 and Compound 134, as further exemplary compounds of the invention, were also tested. Human HepG2 liver cells were incubated with 0.8 mM palmitoleic acid in EMEM medium for 48 hours in the presence of 0.1 μM compounds of the invention or control vehicle, DMSO. Subsequently, the cells were washed with PBS and the intracellular fat content was measured by AdipoRed/Hoechst 33258 double staining, which was assessed by flourometry.

human HepG2 liver cells [2] = test: Intracellular fat content in HepG2 cells, AdipoRed/Hoechst 33258 double staining, 24 hours; type: cell-based; conditions: HepG2, 0.8 mM palmitoleic acid, 0.1 μM compound, FIG. 10B; for palmitoleic acid-induced increase of intracellular triglyceride content: vs DMSO
Protocol: The effects of Compound 13-3-1, Compound 13-3-2, Compound 13-3-3, Compound 13-3-5, Compound 13-3-6, Compound 13-3-7, Compound 15-1, Compound 13-3-10 and Compound 13-3-11, as exemplary compounds of the invention, were tested. Human HepG2 liver cells were incubated with 0.8 mM palmitoleic acid in EMEM medium for 24 hours in the presence of 0.1 μM compounds or control vehicle, DMSO. Subsequently, the cells were washed with PBS and the intracellular fat content was measured by AdipoRed/Hoechst 33258 double staining, which was assessed by flourometry.

Compound | inhibitory effect on fat accumulation as compared to Compound 14-3 (human HepG2 liver cells [1]) | palmitoleic acid-induced increase of intracellular triglyceride content (human HepG2 liver cells [1]) | inhibitory effect on fat accumulation as compared to Compound 14-3 (human HepG2 liver cells [2]) | palmitoleic acid-induced increase of intracellular triglyceride content (human HepG2 liver cells [2])
[2H]c1c([2H])c([2H])c(-c2nc(-c3ccc4c(c3)/C(=C/c3[nH]c(C)c(C(=O)NC([2H])([2H])C([2H])([2H])N(C([2H])([2H])C([2H])([2H])[2H])C([2H])([2H])C([2H])([2H])[2H])c3C)C(=O)N4)cs2)c([2H])c1[2H] [Compound 006] | comparable or greater | markedly suppressed | – | –
CCN(CC)CCNC(=O)c1c(C)[nH]c(/C=C2\C(=O)Nc3ccc(-c4csc(Nc5ccccc5)n4)cc32)c1C [Compound 13-3-1] | – | – | comparable or greater | markedly suppressed
CCN(CC)CCNC(=O)c1c(C)[nH]c(/C=C2\C(=O)Nc3ccc(-c4csc(N5CCCCC5)n4)cc32)c1C [Compound 13-3-2] | – | – | comparable or greater | markedly suppressed
CCN(CC)CCC(=O)N1CCN(c2ccc(/C=C3\C(=O)Nc4ccc(-c5csc(-c6ccccc6)n5)cc43)cc2)CC1 [Compound 13-3-6] | – | – | comparable or greater | markedly suppressed
[2H]C([2H])(NC(=O)c1c(C)[nH]c(/C=C2\C(=O)Nc3ccc(-c4csc(-c5ccccc5)n4)cc32)c1C)C([2H])([2H])N(CC)CC [Compound 001] | comparable or greater | markedly suppressed | – | –
CCN(CC)CCNC(=O)c1c(C)[nH]c(/C=C2\C(=O)Nc3ccc(C4CCN(c5ccccc5)CC4)cc32)c1C [Compound 13-3-11] | – | – | comparable or greater | markedly suppressed
[2H]c1c([2H])c([2H])c(-c2nc(-c3ccc4c(c3)/C(=C/c3[nH]c(C)c(C(=O)NC([2H])([2H])C([2H])([2H])N(CC)CC)c3C)C(=O)N4)cs2)c([2H])c1[2H] [Compound 013] | comparable or greater | markedly suppressed | – | –
CCN(CC)CCNC(=O)c1c(C)[nH]c(/C=C2\C(=O)Nc3cccc(-c4cnc(OC)nc4)c32)c1C [Compound 13-3-5] | – | – | comparable or greater | markedly suppressed
[2H]C([2H])([2H])C([2H])([2H])N(C([2H])([2H])C([2H])([2H])[2H])C([2H])([2H])C([2H])([2H])NC(=O)c1c(C)[nH]c(/C=C2\C(=O)Nc3ccc(-c4csc(-c5ccccc5)n4)cc32)c1C [Compound 004] | comparable or greater | markedly suppressed | – | –
Cc1[nH]c(/C=C2\C(=O)Nc3ccc(-c4csc(-c5cccnc5)n4)cc32)c(C)c1C(=O)N1CCN(C)CC1 [Compound 15-1] | – | – | comparable or greater | markedly suppressed
CCN(CC)CCNC(=O)CCc1c(C)[nH]c(/C=C2\C(=O)Nc3ccc(-c4csc(-c5ccccc5)n4)cc32)c1C [Compound 13-3-7] | – | – | comparable or greater | markedly suppressed
CCN(CC)CCNC(=O)c1c(C)[nH]c(/C=C2\C(=O)Nc3cnc(-c4csc(-c5ccccc5)n4)cc32)c1C [Compound 13-3-10] | – | – | comparable or greater | markedly suppressed
